Test results reported in patent publication US20220249819A1, “MICRONEEDLES, AND METHODS FOR THE MANUFACTURE THEREOF” (UNIVERSITY COLLEGE CORK - NATIONAL UNIVERSITY OF IRELAND, …, priority 2019, published 2022).

Columns and labels:
Format in all cases: physicochemical
[1] = Ability to form a glassy, amorphous form following heat-melting and cooling (XRD)
Procedure: As used herein, the term “meltable drug” or “meltable active pharmaceutical ingredient” refers to an active pharmaceutical ingredient that can be heat-melted to a molten form and has the following properties: • solid at 25° C.; • ability to form a glassy, amorphous form following heat-melting and cooling; and • the amorphous form having a glass transition temperature typically greater than 25° C. Examples of meltable drugs include; antifungals (for example, Itraconazole, Clotrimazole, Ketoconazole, Fluconazole, or derivatives or variants thereof), corticosteroids (for example, Estradiol, betamethasone valerate or derivatives or variants thereof), Anti-inflammatory drugs (for example, Celecoxib, Diclofenac, Sulindac, Indomethacin), Antimicrobials and Antibiotics (for example, Cefuroxime […], Chloramphenicol or derivatives or variants thereof), Cardiovascular and Antihypertensives (Carvedilol, Nifedipine or derivatives or variants thereof), Autonomic nervous system and Psychiatrics medications (Droperidol or derivatives or variants thereof), Antilipidemic and Cholesterol medications (Probucol, Simvastatin or derivatives or variants thereof), Gastrointestinal medications (Famotidine, Omeprazole or derivatives or variants thereof), Respiratory medications, Endocrine medications, Immunomodulators, Oncology drugs, Renal medications, Neurologic medications and anti-migraine (Zolmitriptan or derivatives or variants thereof). Typically, the meltable drug forms a stable amorphous form following melting and cooling; in this context, the formation of amorphous structure is confirmed by the XRD technique. X-ray powder Diffraction (XRD) is an analytical technique primarily used for phase identification of a crystalline material, in which the crystalline structure causes a beam of incident X-rays to diffract into many specific directions. It works best for materials that are crystalline or partially crystalline (i.e., that have periodic structural order) but is also used to study non-crystalline materials FIG. 3.

[2] = Glass transition temperature (Tg) of meltable drug in amorphous form by Differential Scanning calorimetry (DSC)
Text: (§1) The meltable active pharmaceutical ingredient forms a stable amorphous form following melting and cooling; in this context, the term “stable” as applied to the amorphous form means that the thermodynamic tendency of the active pharmaceutical ingredient to crystallize over one year is resisted. […] In this context, minimal degradation means that at least 90% of the active pharmaceutical ingredient retains its therapeutic activity following melting and cooling. […] Also, analysis of ^1H and ^13C NMR confirmed the chemical structure of ITZ, with molecular formula C35H38Cl2N8O4. […] Which indicating the chemical stability of both ITZ melts (FIG. 5). Differential Scanning calorimetry (DSC) may be employed to determine the glass transition temperature (Tg) of a meltable drug in amorphous form DSC utilizes a heat flow technique and compares the amount of heat supplied to the test sample and a similarly heated “reference” to determine transition points. Tg is typically calculated by using a half-height technique in the transition region FIG. 6.

[3] = Chemical stability before and after melting for microneedle fabrication (LC-MS, 1H and 13C NMR)
Text: as §1

GLASSY AND AMORPHOPUS FORM [1]	GLASS TRANSITION TEMP (TG ° C.) [2] [°C]	chemical stability of melts (1H and 13C NMR difference versus unmelted ITZ) [3]	stability before and after melting (LC-MS fragmentation pattern) ([3]; LC-MS, ITZ vs ITZ melt)	Structure (SMILES)
YES	45			COc1ccc2c(c1)c(CC(=O)O)c(C)n2C(=O)c1ccc(Cl)cc1 [Indomethacin]
YES	53			O=C(O)Cc1ccccc1Nc1c(Cl)cccc1Cl [Diclofenac]
YES	75			CC1=C(CC(=O)O)c2cc(F)ccc2/C1=C\c1ccc([S+](C)[O-])cc1 (centres unmarked) [Sulindac]

Further lines, the compound ahead of its results:

Structure (SMILES)	GLASSY AND AMORPHOPUS FORM [1]	GLASS TRANSITION TEMP (TG ° C.) [2] [°C]	chemical stability of melts (1H and 13C NMR difference versus unmelted ITZ) [3]	stability before and after melting (LC-MS fragmentation pattern) ([3]; LC-MS, ITZ vs ITZ melt)
CC(=O)N1CCN(c2ccc(OCC3COC(Cn4ccnc4)(c4ccc(Cl)cc4Cl)O3)cc2)CC1 (centres unmarked) [Ketoconazole]	YES	46		
OC(Cn1cncn1)(Cn1cncn1)c1ccc(F)cc1F [Fluconazole]	YES	32		
CCCCC(=O)O[C@]1(C(=O)CO)[C@@H](C)C[C@H]2[C@@H]3CCC4=CC(=O)C=C[C@]4(C)[C@@]3(F)[C@@H](O)C[C@@]21C [Betamethazone valerate]	YES	54		
Clc1ccccc1C(c1ccccc1)(c1ccccc1)n1ccnc1 [Clotrimazole]	YES	32		
CCC(C)n1ncn(-c2ccc(N3CCN(c4ccc(OCC5COC(Cn6cncn6)(c6ccc(Cl)cc6Cl)O5)cc4)CC3)cc2)c1=O (centres unmarked) [ITZ melt1]			No difference	
CCC(C)n1ncn(-c2ccc(N3CCN(c4ccc(OCC5COC(Cn6cncn6)(c6ccc(Cl)cc6Cl)O5)cc4)CC3)cc2)c1=O (centres unmarked) [Itraconazole]				high stability
CCC(C)n1ncn(-c2ccc(N3CCN(c4ccc(OCC5COC(Cn6cncn6)(c6ccc(Cl)cc6Cl)O5)cc4)CC3)cc2)c1=O (centres unmarked) [ITZ melt2]			No difference	
